Target: T1, aminopeptidase II (Aspergillus oryzae, UniProt Q2ULM2)
T1 construct: the first 15 amino acids likely comprise a secretory signal peptide; made in house; host or cells: Aspergillus oryzae JaL142-6 (alkaline protease-deficient), plasmid pEJG19; purified from shake flask supernatant on Q-Sepharose
Assay: Inhibition of the aminopeptidase II with 1,10-phenanthroline, Leu-pNA as substrate
Format: biochemical
Settings: pH 7.5
Procedure: Inhibition of the aminopeptidase II with 1,10-phenanthroline was evaluated using Leu-pNA as substrate at pH 7.5 in 50 mM Tris pH 7.5 buffer where hydrolysis was monitored at 405 nm. A 200 mM solution of 1,10-phenanthroline in methanol was prepared. The inhibition reaction was conducted by mixing 100 μl of 2 mg of Leu-pNA per ml of 50 mM sodium phosphate pH 7.5 solution and 10 μl of the 1,10-phenanthroline solution with 100 μl of aminopeptidase II diluted 5-fold in 50 mM sodium phosphate pH 7.5 buffer. A control was run where 10 μl of 20 mM Tris pH 7.6 buffer was used in place of the 1,10-phenantholine solution.

T1 sequence (Q2ULM2 17-496): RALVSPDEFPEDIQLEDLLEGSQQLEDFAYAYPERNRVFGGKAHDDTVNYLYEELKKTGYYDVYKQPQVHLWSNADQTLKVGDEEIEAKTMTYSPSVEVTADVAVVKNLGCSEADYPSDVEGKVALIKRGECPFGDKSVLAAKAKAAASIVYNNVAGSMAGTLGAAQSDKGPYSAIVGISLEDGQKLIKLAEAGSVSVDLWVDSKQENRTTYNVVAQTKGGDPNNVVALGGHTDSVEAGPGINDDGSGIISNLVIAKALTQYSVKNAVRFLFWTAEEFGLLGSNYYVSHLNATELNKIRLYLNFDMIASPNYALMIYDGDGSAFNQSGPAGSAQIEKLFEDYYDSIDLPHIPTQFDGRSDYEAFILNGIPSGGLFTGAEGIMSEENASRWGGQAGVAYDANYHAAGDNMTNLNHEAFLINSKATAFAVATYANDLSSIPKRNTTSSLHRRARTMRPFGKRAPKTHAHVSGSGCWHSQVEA

SMILES: c1cnc2c(c1)ccc1cccnc12 [1,10-phenanthroline]
- Inhibition of the aminopeptidase II (Leu-pNA as substrate, 10 μl of 200 mM 1,10-phenanthroline in methanol): inhibited
- rate of hydrolysis of Leu-pNA in the presence of 1,10-phenanthroline (control without inhibitor 285 mOD/minute): 21 mOD/minute

From patent publication US6800467B1, “Polypeptides having aminopeptidase activity and nucleic acids encoding same” (Novozymes Biotech, Inc., priority 1997, dated 2004)
